Laboratory results published in paper PMC8161026, “Synthesis and Anticancer Activity Evaluation of 5-[2-Chloro-3-(4-nitrophenyl)-2-propenylidene]-4-thiazolidinones” (Molecules, 2021).

Assays:
SR = SR (Leukemia), 48 h, SRB
HOP-62 = HOP-62 (Non-Small Cell Lung Cancer), 48 h, SRB
NCI-H23 [1] = details: NCI-H23 (Non-Small Cell Lung Cancer), 48 h, SRB
NCI-H460 [2] = details: NCI-H460 (Non-Small Cell Lung Cancer), 48 h, SRB
SW-620 = SW-620 (Colon Cancer), 48 h, SRB
LOX IMVI = LOX IMVI (Melanoma), 48 h, SRB
HL-60(TB) = assay: cells; details: Homo sapiens, HL-60, 48 h; for CC50: read-out: LC50
SN12C = SN12C (Renal Cancer), 48 h, SRB
MOLT-4 = assay: cells; details: Homo sapiens, MOLT-4, 48 h; for CC50: read-out: LC50
DU-145 = DU-145 (Prostate Cancer), 48 h, SRB
A549/ATCC = assay: cells; details: Homo sapiens, A549, 48 h; for CC50: read-out: LC50
NCI-H23 [3] = assay: cells; details: Homo sapiens, NCI-H23, 48 h; for CC50: read-out: LC50
NCI-H460 [4] = assay: cells; details: Homo sapiens, NCI-H460, 48 h; for CC50: read-out: LC50
T-47D = assay: cells; details: Homo sapiens, T47D, 48 h; for CC50: read-out: LC50
NCI-H226 = assay: NCI DTP 60 cell line screen, SRB; details: for GI50 / CC50: Homo sapiens, NCI-H226, 48 h; for CC50: read-out: LC50; for TGI: NCI-H226 (Non-Small Cell Lung Cancer), 48 h, SRB
SF-268 = assay: NCI DTP 60 cell line screen, SRB; details: for GI50 / CC50: Homo sapiens, SF-268, 48 h; for CC50: read-out: LC50; for TGI: SF-268 (CNS Cancer), 48 h, SRB
MALME-3M = assay: NCI DTP 60 cell line screen, SRB; details: 48 h; for GI50 / CC50: Homo sapiens, Malme-3M; for CC50: read-out: LC50; for TGI: MALME-3M (Melanoma), SRB
SK-MEL-5 = assay: NCI DTP 60 cell line screen, SRB; details: for GI50 / CC50: Homo sapiens, SK-MEL-5, 48 h; for CC50: read-out: LC50; for TGI: SK-MEL-5 (Melanoma), 48 h, SRB
OVCAR-3 = assay: NCI DTP 60 cell line screen, SRB; details: for GI50 / CC50: Homo sapiens, OVCAR-3, 48 h; for CC50: read-out: LC50; for TGI: OVCAR-3 (Ovarian Cancer), 48 h, SRB
SK-OV-3 = assay: NCI DTP 60 cell line screen, SRB; details: for GI50 / CC50: Homo sapiens, SK-OV-3, 48 h; for CC50: read-out: LC50; for TGI: SK-OV-3 (Ovarian Cancer), 48 h, SRB
A498 = assay: NCI DTP 60 cell line screen, SRB; details: for TGI: A498 (Renal Cancer), 48 h, SRB; for GI50 / CC50: Homo sapiens, A498, 48 h; for CC50: read-out: LC50
SNB-75 = SNB-75 (CNS Cancer), 48 h, SRB
SK-MEL-28 = assay: cells; details: Homo sapiens, SK-MEL-28, 48 h

## O=C1/C(=C/C(Cl)=C/c2ccc([N+](=O)[O-])cc2)SC(=S)N1/N=C\C(Cl)=C\c1ccc([N+](=O)[O-])cc1 [Compound 2c, 5-[(Z,2Z)-2-Chloro-3-(4-nitrophenyl)-2-propenylidene]-3-[(Z,2Z)-2-chloro-3-(4-nitrophenyl)-2-propenylideneamino]-2-thioxo-4-thiazolidinone]
SR
  TGI: 12.0 µM
HOP-62
  TGI: 39.7 µM
NCI-H23 [1]
  TGI: 31.6 µM
NCI-H460 [2]
  TGI: 32.3 µM
SW-620
  TGI: > 100 µM
LOX IMVI
  TGI: 28.8 µM
HL-60(TB)
  GI50: 5.32 µM
  CC50: 87.2 µM
SN12C
  TGI: > 100 µM
MOLT-4
  GI50: 3200 nM
  CC50: 52.5 µM
DU-145
  TGI: 52.8 µM
A549/ATCC
  GI50: 18.9 µM
  CC50: 96.1 µM
NCI-H23 [3]
  GI50: 16.6 µM
  CC50: 60.3 µM
NCI-H460 [4]
  GI50: 15 µM
  CC50: 69.5 µM
T-47D
  GI50: 24.5 µM
  CC50: > 100 µM
NCI-H226
  GI50: 12 µM
  CC50: 84.2 µM
  TGI: 31.8 µM
SF-268
  GI50: 17 µM
  CC50: > 100 µM
  TGI: 41.3 µM
MALME-3M
  GI50: 25 µM
  CC50: > 100 µM
  TGI: 60.4 µM
SK-MEL-5
  GI50: 19.4 µM
  CC50: 75.6 µM
  TGI: 38.3 µM
OVCAR-3
  GI50: 821 nM
  CC50: 41.1 µM
  TGI: 12.7 µM
SK-OV-3
  GI50: 59.6 µM
  CC50: > 100 µM
  TGI: > 100 µM
A498
  TGI: 29.6 µM
  GI50: 13 µM
  CC50: 67.3 µM

## O=C1NC(=S)S/C1=C\C(Cl)=C\c1ccc([N+](=O)[O-])cc1 [Compound 2b, 5-[(Z,2Z)-2-Chloro-3-(4-nitrophenyl)-2-propenylidene]-2-thioxo-4-thiazolidinone]
SR
  TGI: 7.96 µM
HOP-62
  TGI: 33.1 µM
NCI-H23 [1]
  TGI: 13.4 µM
NCI-H460 [2]
  TGI: 18.6 µM
SW-620
  TGI: 7.62 µM
SNB-75
  TGI: 23.5 µM
LOX IMVI
  TGI: 15.4 µM
HL-60(TB)
  GI50: 1.21 µM
  CC50: > 50 µM
SN12C
  TGI: 18.0 µM
MOLT-4
  GI50: 1740 nM
  CC50: > 50 µM
DU-145
  TGI: 14.2 µM
A549/ATCC
  GI50: 8.18 µM
  CC50: > 50 µM
NCI-H23 [3]
  GI50: 3.27 µM
  CC50: 45.5 µM
NCI-H460 [4]
  GI50: 3.95 µM
  CC50: > 50 µM
SK-MEL-28
  GI50: 5.87 µM
SK-MEL-28; read-out: LC50
  CC50: 25.9 µM
T-47D
  GI50: 3.21 µM
  CC50: > 50 µM
NCI-H226
  GI50: 6.28 µM
  CC50: > 50 µM
  TGI: 20.0 µM
SF-268
  GI50: 5.24 µM
  CC50: > 50 µM
  TGI: 18.9 µM
MALME-3M
  GI50: 4.93 µM
  CC50: 44.6 µM
  TGI: 14.9 µM
SK-MEL-5
  GI50: 3.82 µM
  CC50: 24 µM
  TGI: 10.6 µM
OVCAR-3
  GI50: 1650 nM
  CC50: 26.6 µM
  TGI: 8.08 µM
SK-OV-3
  GI50: 13 µM
  CC50: > 50 µM
  TGI: > 50 µM
A498
  TGI: 12.2 µM
  GI50: 4.57 µM
  CC50: 30.9 µM
